Experimental data from the supplement of paper PMC10307832.

compound: CC1(C)CCC(CN2CCN(c3ccc(C(=O)NS(=O)(=O)c4ccc(NCC5CCOCC5)c([N+](=O)[O-])c4)c(Oc4cnc5[nH]ccc5c4)c3)CC2)=C(c2ccc(Cl)cc2)C1 [Venetoclax] + CS(=O)(=O)CCNCc1ccc(-c2ccc3ncnc(Nc4ccc(OCc5cccc(F)c5)c(Cl)c4)c3c2)o1 [Lapatinib] (partner 2 µM); experiment: relative viability (nuclei count vs DMSO), 5 days (fraction); higher = more cells survive; settings: first compound 0.01 µM
Summary of the method: (§1)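 Cells from lung cancer lines were seeded into 1536-well plates and, one day later, dosed by pin tool. Treatments were either a single drug or a fixed dose of an anchor drug with five library-drug doses (not always all listed) in √10 steps. After 5 days, nuclei were stained in a one-step fixation (final 0.05% Triton X-100, 1% formaldehyde, 1 ug/ml Hoechst) and counted on 4× images, and relative viability is the treated-to-vehicle nuclei ratio, as the median of duplicate plates.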

First: LK-2
Second: NCI-H2228
The relative viability of the first is lower: 0.973 for the first, 1.15 for the second.

Compared with SK-MES-1, HARA is higher in relative viability: 0.462 for the first, 0.876 for the second.

First: COR-L23
Second: COR-L 105
The relative viability of the first is higher: 0.921 for the first, 0.418 for the second.

First: LC-2-ad
Second: NCI-H2170
The relative viability of the first is higher: 0.986 for the first, 0.255 for the second.

Compared with IA-LM, A549 is higher in relative viability: 0.849 for the first, 1.05 for the second.

Going from NCI-H1299 to NCI-H1395, the relative viability rises from 0.993 to 1.37.

Going from NCI-H1703 to NCI-H1650, the relative viability falls from 0.992 to 0.764.

NCI-H1793 was tested, and the relative viability was 0.677.

same assay, conditions: first compound 0.03162 µM

Compared with PC-14, NCI-H1666 is higher in relative viability: 0.328 for the first, 0.664 for the second.

Going from EBC-1 to NCI-H1755, the relative viability rises from 0.187 to 1.08.

Going from NCI-H2023 to EPLC-272H, the relative viability falls from 0.888 to 0.87.

Going from LCLC-97TM1 to PC-3 [JPC-3], the relative viability falls from 1 to 0.474.

Compared with LOU-NH91, NCI-H647 is higher in relative viability: 0.843 for the first, 1.15 for the second.

Compared with NCI-H23, EMC-BAC-2 is lower in relative viability: 1.14 for the first, 0.878 for the second.

First: NCI-H2126
Second: Calu-6
The relative viability of the first is lower: 0.731 for the first, 1.13 for the second.

Compared with HCC-44, NCI-H1734 is higher in relative viability: 0.979 for the first, 0.993 for the second.

First: NCI-H650
Second: LK-2
The relative viability of the first is lower: 0.86 for the first, 0.99 for the second.

First: NCI-H2228
Second: SK-MES-1
The relative viability of the first is higher: 1.29 for the first, 0.53 for the second.

Compared with HARA, COR-L23 is higher in relative viability: 0.68 for the first, 0.957 for the second.

Going from COR-L 105 to LC-2-ad, the relative viability rises from 0.384 to 0.899.

Compared with NCI-H2170, IA-LM is higher in relative viability: 0.29 for the first, 0.723 for the second.

First: A549
Second: NCI-H1299
The relative viability of the first is higher: 0.988 for the first, 0.96 for the second.

Compared with NCI-H1395, NCI-H1703 is higher in relative viability: 1.09 for the first, 1.11 for the second.

Compared with NCI-H1650, NCI-H1793 is lower in relative viability: 0.873 for the first, 0.758 for the second.

same assay, conditions: first compound 0.1 µM

Going from PC-14 to NCI-H1666, the relative viability rises from 0.291 to 0.519.

First: EBC-1
Second: NCI-H1755
The relative viability of the first is lower: 0.234 for the first, 0.796 for the second.

Going from NCI-H2023 to EPLC-272H, the relative viability rises from 0.748 to 0.89.

Going from LCLC-97TM1 to PC-3 [JPC-3], the relative viability falls from 0.579 to 0.434.

Compared with LOU-NH91, NCI-H23 is higher in relative viability: 0.737 for the first, 0.942 for the second.

Going from EMC-BAC-2 to NCI-H2126, the relative viability rises from 0.731 to 0.734.

First: Calu-6
Second: HCC-44
The relative viability of the first is lower: 0.94 for the first, 0.997 for the second.

Going from NCI-H1734 to LK-2, the relative viability falls from 0.925 to 0.846.

Compared with NCI-H2228, SK-MES-1 is lower in relative viability: 1.21 for the first, 0.461 for the second.

Compared with HARA, COR-L23 is higher in relative viability: 0.647 for the first, 0.983 for the second.

Compared with COR-L 105, LC-2-ad is higher in relative viability: 0.326 for the first, 0.876 for the second.

First: NCI-H2170
Second: IA-LM
The relative viability of the first is lower: 0.255 for the first, 0.646 for the second.

Going from A549 to NCI-H1299, the relative viability falls from 1.04 to 0.976.

Going from NCI-H1395 to NCI-H1703, the relative viability falls from 0.958 to 0.895.

NCI-H1793 was tested, and the relative viability was 0.443.

same assay, conditions: first compound 0.3162 µM

Going from PC-14 to NCI-H1666, the relative viability rises from 0.361 to 0.624.

Compared with EBC-1, NCI-H1755 is higher in relative viability: 0.206 for the first, 1.04 for the second.

Going from NCI-H2023 to EPLC-272H, the relative viability rises from 0.898 to 1.08.

Compared with LCLC-97TM1, PC-3 [JPC-3] is lower in relative viability: 0.868 for the first, 0.465 for the second.

Compared with LOU-NH91, NCI-H647 is higher in relative viability: 0.778 for the first, 1.21 for the second.

Going from NCI-H23 to EMC-BAC-2, the relative viability falls from 1.12 to 0.847.

Compared with NCI-H2126, Calu-6 is higher in relative viability: 0.769 for the first, 1 for the second.

Going from HCC-44 to NCI-H1734, the relative viability falls from 1.08 to 0.921.

First: NCI-H650
Second: LK-2
The relative viability of the first is higher: 0.963 for the first, 0.894 for the second.

Compared with NCI-H2228, SK-MES-1 is lower in relative viability: 1.09 for the first, 0.425 for the second.

Going from HARA to COR-L23, the relative viability rises from 0.822 to 0.922.

Going from COR-L 105 to LC-2-ad, the relative viability rises from 0.355 to 0.973.

Compared with NCI-H2170, IA-LM is higher in relative viability: 0.254 for the first, 0.897 for the second.

Going from A549 to NCI-H1299, the relative viability falls from 0.998 to 0.959.

First: NCI-H1395
Second: NCI-H1703
The relative viability of the first is higher: 1.09 for the first, 1.01 for the second.

First: NCI-H1650
Second: NCI-H1793
The relative viability of the first is higher: 1.01 for the first, 0.613 for the second.

same assay, conditions: first compound 1 µM

Compared with PC-14, NCI-H1666 is higher in relative viability: 0.323 for the first, 0.515 for the second.

Compared with EBC-1, NCI-H1755 is higher in relative viability: 0.224 for the first, 0.961 for the second.

Going from NCI-H2023 to EPLC-272H, the relative viability rises from 0.627 to 0.921.

Compared with LCLC-97TM1, PC-3 [JPC-3] is lower in relative viability: 0.814 for the first, 0.475 for the second.

Going from LOU-NH91 to NCI-H647, the relative viability rises from 0.75 to 0.978.

First: NCI-H23
Second: EMC-BAC-2
The relative viability of the first is higher: 0.984 for the first, 0.827 for the second.

Going from NCI-H2126 to Calu-6, the relative viability rises from 0.73 to 0.97.

Compared with HCC-44, NCI-H1734 is higher in relative viability: 0.973 for the first, 1.07 for the second.

Compared with NCI-H650, LK-2 is lower in relative viability: 0.882 for the first, 0.767 for the second.

First: NCI-H2228
Second: SK-MES-1
The relative viability of the first is higher: 0.954 for the first, 0.463 for the second.

Compared with HARA, COR-L23 is higher in relative viability: 0.758 for the first, 0.938 for the second.

First: COR-L 105
Second: LC-2-ad
The relative viability of the first is lower: 0.367 for the first, 0.938 for the second.

Compared with NCI-H2170, IA-LM is higher in relative viability: 0.268 for the first, 0.552 for the second.

Compared with A549, NCI-H1299 is higher in relative viability: 0.898 for the first, 0.909 for the second.

First: NCI-H1395
Second: NCI-H1703
The relative viability of the first is lower: 0.964 for the first, 1.03 for the second.

Going from NCI-H1650 to NCI-H1793, the relative viability falls from 0.81 to 0.551.

compound: CC1(C)CCC(CN2CCN(c3ccc(C(=O)NS(=O)(=O)c4ccc(NCC5CCOCC5)c([N+](=O)[O-])c4)c(Oc4cnc5[nH]ccc5c4)c3)CC2)=C(c2ccc(Cl)cc2)C1 [Venetoclax] + C[C@]1(O)C[C@@H](c2nc(-c3ccc4ccc(-c5ccccc5)nc4c3)c3c(N)nccn32)C1 [Linsitinib] (partner 1 µM); experiment: as above; settings: first compound 0.01 µM
Summary of the method: as §1

First: PC-14
Second: NCI-H1666
The relative viability of the first is higher: 0.925 for the first, 0.909 for the second.

First: EBC-1
Second: NCI-H1755
The relative viability of the first is lower: 0.902 for the first, 0.978 for the second.

Compared with NCI-H2023, PC-3 [JPC-3] is higher in relative viability: 0.685 for the first, 0.922 for the second.

First: LOU-NH91
Second: NCI-H647
The relative viability of the first is lower: 0.887 for the first, 0.996 for the second.

Going from NCI-H23 to EMC-BAC-2, the relative viability rises from 0.646 to 0.789.

Going from NCI-H2126 to Calu-6, the relative viability rises from 0.792 to 0.897.
